Data reported in patent publication US6750247B2, “Sponge-derived terpenoids and methods of use” (Galileo Laboratories, Inc., priority 2001, dated 2004).
Structures can show the parent of a compound that is named as a salt.

Assays:
[1] = system: primary hippocampal neuronal cells; test: Hippocampal anoxia-reoxygenation cell death assay; type: cell-based, mice; conditions: for Dose for Max. Activity / Percent Activity: 5 hr hypoxia, 20-24 hr reoxygenation; for Percent Activity: at dose for max. activity, live neurons by Cell Tracker Green; for cell viability: compared to hypoxia-reoxygenated cells
Description: Neurobasal medium (Life Technologies, Rockville, Md.) with 1× B27 supplement (Life Technologies), […], 25 μM L-glutaxnic acid, and 1× Penicillin/Streptomycin was prepared fresh prior to use. Hank's Basic Salt Solution (HBSS, Ca/Mg-free) was prepared by preparing 1× Hanks CMF (Gibco) supplemented with HEPES (10 mM, pH 7.3), sodium bicarbonate (0.35%), 1× Penicillin/Streptomycin, and 1 mM pyruvate. Poly-D-lysine (Sigma, St. Louis, Mo.) was prepared by filtering a 50 μg/ml solution through 0.2 μm filter tubes. Sigmacote (Sigma, St. Louis, Mo.). Plastic Culture Flasks (T75 cm^2) or 12-well cell culture plates were then treated with Poly-D-Lysine (Sigma, St. Louis, Mo.).
Pregnant female mice (E18-E19) were euthanized with CO2 prior to removal of the uterus, which was then placed in a sterile plastic petri dish. The embryos were removed from the sac, and the embryonic brains removed and immersed in cold (4° C.) Hepes Buffered Salt Solution (HBSS; Ca/Mg free; Life Technologies) in a small petri dish. Hippocampi were then removed from the brains under a dissecting microscope and were placed on a paraffin-covered dish. The meninges were stripped away and the dissected hippocampi were collected in a small petri dish in HBSS. The hippocampi were transferred to a 15-ml centrifuge tube (normally 10-12 brains per tube) filled with HBSS. The tube containing the brains was centrifuged at 1000 rpm for 2 minutes in a GH 3.8 A rotor in an Allegra Centrifuge (Beckman Instruments, Fullerton, Calif.). The supernatant was removed, 2 ml of HBSS was added to the hippocampi in the tube, and the resulting suspension was triturated 2 times each with long-tipped siliconized glass pipettes having progressively smaller apertures, starting with a pipette with a standard size opening (approximately 1.0 mm diameter), following with one having an aperture of half standard size (approximately 0.5 mm diameter), then with one having an aperture about one-half that size (0.25 mm diameter). The suspension was then centrifuged again at 1000 rpm for 2 min in a tabletop centrifuge, the supernatant was discarded, and 2 ml of Neurobasal/B27i (with antibiotics) was added to the tube. The trituration procedure described above was then repeated on this suspension.
The density of cells was determined on a small aliquot of cells using standard counting procedures and correcting for cell viability by trypan blue stain exclusion. Using this procedure, the expected yield is 3×10^5-6×10^5 cells/brain. Cells were then added to PDL-coated 12 well plates, flasks or MetTek dishes in Neurobasal/B27I at a density of about 1.5×10^6 cells (T75 flask) or about 100,000 cells/well of a 12-well plate. Plated cells were incubated at 37° C. with 5% CO2 in air atmosphere. Media was renewed after 3-4 days by replacing half of it with fresh Neurobasal/B27m medium, containing 5 μM cytosine arabinoside (AraC). Seven to eight days from the initial culture, the media was renewed again, by removing one-half or it and replacing with an equal amount of fresh Neurobasal/B27m medium (without Ara-C).
This assay was used to induce ischemia by anoxia-reoxygenation in cultured hippocampal neuronal cells. Test compounds were added to assess potency and efficacy against ischemia-induced neuronal cell injury and cell death.
Neurobasal media, NoG neurobasal media, B27 supplement and B27 Supplement minus AO were obtained from Life Technologies. Neurobasal/B27 medium was prepared with 2× B27 minus AO supplement, 0.5 mM L-glutamine and 0.25× penicillin/streptomycin. Cell Tracker Green was obtained from Molecular Probes and a fresh 5 μM solution was prepared from 10 mM stock just before use. NoG-Neurobasal contains NoG neurobasal medium plus 0.5 mM glucose, 0.1 mM L-glutamine and 0.25× Penicillin/Streptomycin. Primary hippocampal neuronal cells were prepared according to the methods described above and were cultured in poly-D-lysine coated 12 well plates for 10-11 days prior to use. […]

neonatal cardiomyocytes = test: Myocyte calcium-contractility assay (cardiomyocyte beating anoxia assay); type: cell-based, rat; conditions: 16 hr anoxia, 2 hr reoxygenation; for Percent Activity: at dose for max. activity, Fluo-4 fluorescence
Description: 10× Heart Dissection Solution (HDS) contains the following components (g/l) in tissue culture grade water: NaCl, 68; HEPES, 47.6; NaH2PO4, 2; Glucose, 10; KCl, 4; MgSO4, 1, pH adjusted to 7.4. Prior to filter sterilization of diluted (1× HDS) solution, 10 mg phenol red was added to each 500 milliliters of medium. Transferrin and Bovine Insulin were obtained from Life Technologies, and resuspended at a concentration of 4 mg/ml in tissue culture grade water. DMEM-F12- DMEM/F12, powder, 1:1 containing glutamine and pyridoxine hydrochloride was purchased from Life Technologies. To one liter equivalent of the powder was added 2.43 g of sodium bicarbonate and 10 ml of 100× Penicillin/Streptomycin in 950 ml of tissue culture grade water with stirring. The pH was adjusted to 7.2 with 1M HCl and volume was adjusted to 1 liter. The solution was filter sterilized then 2.5 ml of 4 mg/ml Transferrin, 250 μl 4 mg/ml Insulin and 30.7 mg of bromodeoxyuridine were added. DMEM-F12 was also prepared with 4% FBS for pre-coating the tissue culture plates and initial suspension of the cardiomyocyte pellet. Collagenase solution-49 mg of collagenase was resuspended in 120 ml 1× HDS.
Tissue culture plasticware was pre-coated with DMEM-F12-4% FBS by incubating 50 μl per well of a 96-well plate. Two-day old rat pups were removed from their mothers and placed in a sterile container. Pups were dipped quickly into 70% alcohol, then decapitated and the body was placed in an empty sterile tissue culture dish. An incision was made starting at the neck and progressing towards the belly, cutting through the sternum. The heart was removed and placed in a tissue culture dishes containing 1× HDS. The atria were trimmed, and the remaining ventricles were placed into a separate tissue culture dish containing 1× HDS, where they were sectioned into 3-4 pieces each. Ventricles were then transferred to a sterile 250 ml glass flask and the 1× HDS was removed. Twenty milliliters of pre-warmed collagenase solution were added to the ventricles, followed by incubation at 37° C. with shaking. After 30 minutes, the collagenase solution was removed and replaced with 20 ml fresh pre-warmed collagenase. Incubation was continued for an additional 20 minutes. At the end of the incubation, any tissue chunks were allowed to settle prior to removing the collagenase (containing the isolated cardiomyocytes) from the disrupted tissue pieces. The isolated myocytes were added to a 50 ml Falcon tube containing 2 ml Fetal Bovine Serum (FBS). The remaining tissue pieces were subjected to a second digestion by adding 20 ml fresh pre-warmed collagenase and incubating as above for 20 minutes. This second digest was then centrifuged at 1000 rpm for 10 minutes in a GH 3.8 A rotor in an Allegra 6 Centrifuge (Beckman Instruments, Fullerton, Calif.). The resulting supernatant was discarded, and the cell pellet was suspended with 4 ml FBS. The resulting cell suspension was placed in the incubator at 37° C. This step was repeated several additional times to harvest additional material.
Percoll gradients were prepared by adding 2.5 ml of 10× HDS to 22.5 ml of Percoll (Life Technologies) with mixing (Percoll Stock). Top Gradient solution (11 ml Percoll Stock and 14 ml 1× HDS) and Bottom Gradient solution (13 ml Percoll Stock and 7 ml 1× HDS) were prepared. Four milliliters of the Top Gradient solution were transferred into 6×15 ml sterile Falcon tubes. Three milliliters of the Bottom Gradient solution were placed in each tube by inserting a serological pipette to the bottom of the tube and slowly adding the liquid.
All the digests (5 in total) were pooled in one 50 ml Falcon tube and centrifuged on a tabletop Allegra 6 Centrifuge (Beckman Instruments, Fullerton, Calif.) using a GH 3.8 A rotor at 1000 rpm for 10 minutes. The supernatant was discarded, and the cell pellet was resuspended in 12 ml of 1× HDS. Two milliliters of the cell suspension was added to the top of each gradient. […]

[2] = target: T1, 15-human lipoxygenase (15-HLO) (Homo sapiens, UniProt P16050); test: 15-human lipoxygenase (15-HLO) inhibition assay; type: biochemical; conditions: 3 μM linoleic acid, pH 7.5, approx. 22° C.
T1 construct: made in house
T1 sequence (P16050 1-662): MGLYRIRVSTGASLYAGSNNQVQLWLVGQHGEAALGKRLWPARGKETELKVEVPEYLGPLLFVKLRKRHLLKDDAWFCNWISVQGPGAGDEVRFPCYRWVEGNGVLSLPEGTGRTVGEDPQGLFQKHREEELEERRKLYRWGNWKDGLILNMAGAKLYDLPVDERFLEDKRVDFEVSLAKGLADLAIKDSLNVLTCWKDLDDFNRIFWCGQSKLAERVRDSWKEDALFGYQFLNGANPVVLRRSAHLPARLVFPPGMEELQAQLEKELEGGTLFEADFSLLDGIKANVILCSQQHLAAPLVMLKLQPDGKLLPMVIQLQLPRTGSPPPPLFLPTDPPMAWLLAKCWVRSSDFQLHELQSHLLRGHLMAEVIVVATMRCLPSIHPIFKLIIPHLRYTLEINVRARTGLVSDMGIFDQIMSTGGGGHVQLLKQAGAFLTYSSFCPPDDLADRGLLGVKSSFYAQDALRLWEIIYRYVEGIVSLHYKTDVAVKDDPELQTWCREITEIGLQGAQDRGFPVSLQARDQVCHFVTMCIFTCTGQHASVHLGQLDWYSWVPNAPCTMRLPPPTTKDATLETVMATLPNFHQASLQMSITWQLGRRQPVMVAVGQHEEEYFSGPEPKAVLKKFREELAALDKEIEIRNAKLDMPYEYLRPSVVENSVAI
Description: 15-human lipoxygenase (15-HLO) was expressed and purified as described by Holman et al., J. Am. Chem. Soc. […] 15-HLO enzyme activity was determined by direct measurement of the product formation of a 3 μM linoleic acid solution by monitoring the increase of absorbance at 234 nm in 25 mM Hepes (pH 7.5), 0.2% (g/L) cholic acid. All reactions were performed in 2 ml of buffer (approx. 200 nM 15-HLO) under constant stirring at approximately 22° C. IC50 values were determined by measuring the enzymatic rate at a variety of inhibitor concentrations (depending upon inhibitor potency) and plotting their corresponding values versus inhibitor concentration. The corresponding data was fit to a simple saturation curve and the inhibitor concentration at 50% activity was determined. The subject inhibitors used in the assay were dissolved in MeOH at a concentration of approximately 25 mg/ml.

CC(C)=CCC[C@@]1(C)CCC[C@]2(C)[C@@H](Cc3cc(C(=O)O)ccc3O)C(C)=CC[C@@H]12 [(−)-jaspic acid (4), 4-hydroxy-3-[2,5,8a-trimethyl-5-(4-methyl-pent-3-enyl)-1,4,4a,5,6,7,8,8a-octahydro-naphthalen-1-ylmethyl]-benzoic acid]
Dose for Max. Activity [1]: 1 µg/mL
Percent Activity [1]: 63%
cell viability [1]: increased cell viability
Dose for Max. Activity (neonatal cardiomyocytes): 3 µg/mL
cell viability (neonatal cardiomyocytes): increased cell viability
Percent Activity (neonatal cardiomyocytes): 59%

CC(C)=CCC/C(C)=C/CCC1=CC(=O)OC1O (racemic) [Dictyodendrillin B (11), 4-(4,8-dimethyl-nona-3,7-dienyl)-5-hydroxy-5H-furan-2-one]
Dose for Max. Activity [1]: 0.1 µg/mL
Percent Activity [1]: 56%
cell viability [1]: increased cell viability
Percent Activity (neonatal cardiomyocytes): No activity at 100 μg/mL

CC(=O)O[C@@H]1OC=C2[C@@H](OC(C)=O)C[C@H]3[C@]4(C)CC[C@@H]5C([C@H](C)CCC5(C)C)[C@H]4C[C@@H](O)[C@]3(C)[C@H]21 (some centres unmarked) [Heteronemin (13), 24,25-epoxy-17(24)-scalarene-12-ol-16,25-diacetate]
Dose for Max. Activity [1]: 0.1 µg/mL
Percent Activity [1]: 21%
cell viability [1]: increased cell viability
Percent Activity (neonatal cardiomyocytes): No activity at 100 μg/mL

CC(C)=CCC/C(C)=C/CCC1=CC(O)OC1=O (racemic) [Dictyodendrillin C (12), 3-(4,8-dimethyl-nona-3,7-dienyl)-5-hydroxy-5H-furan-2-one]
Dose for Max. Activity (neonatal cardiomyocytes): 100 µg/mL
cell viability (neonatal cardiomyocytes): increased cell viability
Percent Activity (neonatal cardiomyocytes): 46%

CCCCCCCC/C=C\CCCCCCCCOS(=O)(=O)O [oleyl sulfate, reference compound]
IC50 [2]: 400 nM

CC1CCC2C(=CCCC2(C)C)C1(C)CCC(CO)CCCc1ccoc1 (centres unmarked) [Halisulfate 7 alcohol (8), 5-furan-3-yl-2-[2-(1,2,5,5-tetramethyl-1,2,3,4,4a,5,6,7-octahydro-naphthalen-1-yl)-ethyl]-pentan-1-ol]
Percent Activity [1]: No activity at 10 μg/mL
Percent Activity (neonatal cardiomyocytes): No activity at 75 μg/mL
